Reference: US20100048545A1, “Compounds and Compositions for Use in the Prevention and Treatment of Disorders of Fat Metabolism and Obesity” (INNODIA INC., priority 2006, published 2010)
Read-outs that look alike come from different tables or passages of the source.

Legend:
DIO-mice = type: in vivo
Description: The objective of this study was to evaluate the effect of chronic administration of 4-hydroxyisoleucine (4-OH, compound 14a) on food consumption and body weight gain of DIO-mice. Both parameters were monitored for 1 week prior to the commencement of treatment, then for the 77 days of treatment and for an additional 12 days post-treatment.
C57BL/6 mice were received at 7-8 weeks of age and fed a high fat diet (60% of calories from fat) for several weeks. A total of 32 animals were used in the study. The animals were distributed into 4 groups (3 treated, 1 control group, all on high fat diet). Each group was composed of 8 animals. The mice were randomized according to body weight and basal glycemia values following a 5±0.5 hour fasting period.
The test agent was dissolved in reverse osmosis water. 4-Hydroxyisoleucine was aliquoted and kept at 4° C. Control animals received reverse osmosis water twice daily (group 1). Mice from groups 2, 3 and 4 were treated twice daily with 4-hydroxyisoleucine (4-OH, compound 14a) at 100, 50, and 25 mg/kg, respectively. All groups were treated by oral gavage. Treatment commenced on Day 0 and ended on Day 77. Food consumption was measured daily and averaged on a weekly basis beginning one week before the start of treatment as shown in FIG. 16B. Similarly, food consumption was monitored during the treatment period and for 12 days after treatment was stopped as shown in FIGS. 16A and 16B.

[1] = tested on: normal Wistar rats fed a high fat, high sucrose diet (HFHS); assay: Prevention of weight gain in rat model of diet-induced obesity (HFHS diet), 28 days; details: 100 mg/kg twice daily oral; for weight gain: HFHS diet
Description: The aim of this study was to evaluate the effect of chronic administration of 4-hydroxyisoleucine (4-OH, Compound 14a) on food consumption, tissue weight, and body weight gain of normal Wistar rats fed a high fat, high sucrose diet (HFHS).
The animals were acclimated for 1 week and fed standard chow prior to the commencement of treatment, then for the 28 days of the treatment the animals were fed a high fat, high sucrose diet (HFHS). A total of 30 animals were used in the study. The animals were distributed into 3 groups each composed of 10 animals: 1 group fed HFHS with treatment, 1 untreated control group fed standard chow, and 1 untreated group fed HFHS. Animals were housed separately and food consumption was monitored daily.
For the four weeks of treatment, the test compounds were dissolved in reverse osmosis water. 4-hydroxyisoleucine (4-OH) was aliquoted and kept at 4° C. Treated animals received twice daily oral administration of 4-OH at 100 mg/kg per dose. Control animals received water twice daily.

wistar obese rats = assay: Reversal of weight gain in rat model of diet-induced obesity, 28 days; details: 100 mg/kg twice daily oral
Description: The aim of this study was to evaluate the effect of chronic administration of 4-hydroxyisoleucine (4-OH, Compound 14a) on food consumption, tissue weight, and body weight gain of wistar obese rats.
A total of 30 animals were used in the study. The animals were acclimated for 1 week and fed standard chow. The animals were randomized into 3 groups of 10 animals each. Two groups were fed a high fat, high sucrose diet (HFHS), and 1 untreated control group was fed standard chow over a 28 day period. Animals were housed separately and food consumption was monitored daily.
In the following period of 28 days, the feeding regimen remained the same for the 3 groups; however, 1 group fed HFHS was treated with twice daily oral administration of 4-OH at 100 mg/kg per dose. For the 28 days of treatment, 4-OH was dissolved in reverse osmosis water, aliquoted, and kept at 4° C. Untreated animals received water twice daily.

[2] = tested on: Wistar rats fed HFHS diets; assay: Energy expenditure (oxygen consumption) by indirect calorimetry in HFHS fed rats; type: in vivo; details: 100 mg/kg oral gavage twice daily, 4 weeks, vs pair fed and HFHS control, p<0.01
Description: A study was conducted to determine whether the decrease in adiposity as described above was due to increased energy expenditure. For this study, Wistar rats were randomized into 3 groups (n=10/group) and fed HFHS diets. […] The second group of animals served as pair fed controls, and while not treated with drug, diet in terms of caloric intake was matched to treated animals. The third group was fed a HFHS diet ad libitum without any treatment. After a 4 week period of treatment these animals were assessed by indirect calorimetry with increased oxygen consumption used as an indicator of increased energy expenditure.

Sprague-Dawley rats = assay: 13-week oral toxicity study: body weight and lipid profiles of SD rats fed regular chow; type: in vivo
Description: Sprague-Dawley rats were received at 7-12 weeks of age (225-300 g). […] The control group received vehicle (water) alone. Body weights were recorded once prior to group assignment, and approximately one week prior to initiation of treatment. Then, body weights were recorded for all animals up to 1 day prior to dosing and weekly thereafter during the treatment period. At the end of the treatment period, a blood sample was withdrawn to measure plasma triglyceride and cholesterol levels.

HSL = assay: RT-PCR gene expression in adipocytes of treated rats: HSL; type: in vivo
Description: (§1) As the ex vivo studies on adipocytes indicated the lipolytic effect of drug was due to chronic exposure (see previous example), a role in gene regulation was assessed. RT-PCR was used to assess the expression of genes in the adipocytes from treated and control animals.

CPT1 = assay: RT-PCR gene expression in adipocytes of treated rats: CPT1; type: in vivo; details: data not shown
Description: as §1

[3] = 100, 200, 400 mg/kg/day, Day 92

## C[C@@H]([C@H](C)O)[C@H](N)C(=O)O [Compound 14a, (2S,3R,4S)-4-Hydroxyisoleucine]
DIO-mice; 100 mg/kg twice daily, Day 28 to Day 84
  body weight gain: significantly effective at controlling body weight gain
DIO-mice; 100 mg/kg twice daily, Day 28 to Day 84, listed as 4-OH
  body weight gain: sustained and highly significant
DIO-mice; 100 mg/kg twice daily, first week of treatment
  food consumption: slight decrease in food consumption
DIO-mice; 100 mg/kg, first week following cessation of treatment
  body weight gain and food consumption after treatment was stopped: increase in the first week following cessation of treatment
DIO-mice; 25, 50 and 100 mg/kg twice daily, oral gavage, 77 days
  tolerability of treatment: well-tolerated
DIO-mice; 50 and 100 mg/kg twice daily, first three weeks of treatment
  body weight gain: moderation of weight gain was observed
[1]
  epididymal and peri-renal adipose tissue: reduction of epididymal and peri-renal adipose tissue
  food consumption: reduction in food consumption
  muscle, brown fat, and organ weight: not affected
  tolerability of treatment: well tolerated
  weight gain: prevention of weight gain
[1]; listed as 4-OH
  weight gain: Moderation of weight gain was observed
Wistar obese rats
  epididymal and peri-renal adipose tissue: reduction of epididymal and peri-renal adipose tissue
  food consumption: reduction in food consumption
  muscle, brown fat, and organ weight: not affected
Wistar obese rats; after 28 days HFHS
  tolerability of treatment: well tolerated
  weight gain: reversal of weight gain
Wistar obese rats; after 28 days HFHS, listed as 4-OH
  weight gain: Moderation of weight gain was observed
[2]
  oxygen consumption (energy expenditure), night phase: oxygen consumption was increased
Sprague-Dawley rats; 200 mg/kg/day, 13 weeks
  average body weight at end of treatment, male rats: 527 g
Sprague-Dawley rats; 400 mg/kg/day, 13 weeks
  average body weight at end of treatment, male rats: 520 g
Sprague-Dawley rats; 400 mg/kg/day, male rats
  reduction of triglycerides, significance: statistically significant
Sprague-Dawley rats; [3]
  cholesterol levels, male rats: reduced in a dose-dependant manner
  triglyceride levels, male rats: reduced in a dose-dependant manner
Sprague-Dawley rats; 200 and 400 mg/kg/day once daily oral, 13 weeks, vs control
  body weight, male rats: clear reduction of body weight compared to control rats
Sprague-Dawley rats; 200 and 400 mg/kg/day, male rats
  reduction of cholesterol, significance: statistically significant
HSL
  expression of hormone sensitive lipase (HSL), increase: 1.3-1.4 times
HSL; HFHS diet, treated for 4 weeks (28 days)
  Increase (x times) in expression of HSL: 1.3 x times
CPT1
  expression of CPT1: Upregulation
